In test [1] the test system is integrin β5 localization in PA-JEB keratinocytes. Kind of test: Immunofluorescence: integrin β5 clustering in FAs/FCLs, PA-JEB. It is filed as cell-based, human. The note with it: 5 nM calyculin A versus DMSO, 30 min, 10% FCS DMEM, three independent experiments. From the text:
Fig. 3. Serine 759 and 762 are involved in regulating the localization of integrin β5. (A–C) Integrin β5 containing S759/762E or S759/762A mutations (A) were expressed in β5-deficient PA-JEB/β4 keratinocytes and the subcellular distribution of β5 was compared to β5-deficient keratinocytes expressing wild-type (WT) β5. Merged images show integrin β5 (green), vinculin (B) or clathrin (C) (red), actin (blue) and the cell nuclei (cyan). (D,E) Analysis of wild-type versus mutant integrin β5 clustering in FAs or FCLs. (F–I) PA-JEB/β4 keratinocytes were grown in 10% FCS-supplemented DMEM culture medium overnight and then treated with 5 nM calyculin A (Cal.A) or DMSO (vehicle control) for 30 min prior to fixation. Merged images show integrin β5 (green), vinculin (F) or clathrin (H) (red), actin (blue) and the cell nuclei (cyan), quantifications of β5 clustering in FAs or FCLs are shown in G,I. (J,K) Analysis of integrin β5 clustering in FAs or FCLs in PA-JEB keratinocytes after treatment with Cal.A. Representative confocal microscopy images are shown in Fig. S3. Scale bars: 20 μm. Data were obtained from three independent experiments. Total cells analyzed per condition: 109 (WT), 116 (S>E), 103 (S>A) (D), 81 (WT), 77 (S>E), 101 (S>A) (E), 126 and 123 (G), 111 and 101 (I), 106 and 102 (J), 115 and 109 (K). ****P<0.0001 (Mann–Whitney U-test). […]

For test [2], the system named is integrin β5 localization in PA-JEB/β4 keratinocytes. Kind of test: Immunofluorescence: integrin β5 clustering in FAs/FCLs, PA-JEB/β4. It is filed as cell-based, human. From the text:
Fig. 3. Serine 759 and 762 are involved in regulating the localization of integrin β5. (A–C) Integrin β5 containing S759/762E or S759/762A mutations (A) were expressed in β5-deficient PA-JEB/β4 keratinocytes and the subcellular distribution of β5 was compared to β5-deficient keratinocytes expressing wild-type (WT) β5. Merged images show integrin β5 (green), vinculin (B) or clathrin (C) (red), actin (blue) and the cell nuclei (cyan). (D,E) Analysis of wild-type versus mutant integrin β5 clustering in FAs or FCLs. (F–I) PA-JEB/β4 keratinocytes were grown in 10% FCS-supplemented DMEM culture medium overnight and then treated with 5 nM calyculin A (Cal.A) or DMSO (vehicle control) for 30 min prior to fixation. Merged images show integrin β5 (green), vinculin (F) or clathrin (H) (red), actin (blue) and the cell nuclei (cyan), quantifications of β5 clustering in FAs or FCLs are shown in G,I. (J,K) Analysis of integrin β5 clustering in FAs or FCLs in PA-JEB keratinocytes after treatment with Cal.A. Representative confocal microscopy images are shown in Fig. S3. Scale bars: 20 μm. Data were obtained from three independent experiments. Total cells analyzed per condition: 109 (WT), 116 (S>E), 103 (S>A) (D), 81 (WT), 77 (S>E), 101 (S>A) (E), 126 and 123 (G), 111 and 101 (I), 106 and 102 (J), 115 and 109 (K). ****P<0.0001 (Mann–Whitney U-test). Box plots range from the 25th to 75th percentile; central line indicates the median; whiskers show smallest to largest value.
PA-JEB/β4 keratinocytes were seeded on glass coverslips and cultured in complete KGM medium for 24 h, and then treated with DMEM plus 10% FCS for 24 h. Other cell lines were seeded on glass coverslips and cultured in DMEM plus 10% FCS. Cells were fixed with 2% paraformaldehyde (PFA) for 10 min, permeabilized with 0.2% Triton X-100 for 5 min, and blocked with PBS containing 2% bovine serum albumin (BSA; Sigma) for at least 30 min. Next, cells were incubated with the primary antibodies for 1 h at room temperature. Cells were washed three times before incubation with the secondary antibodies for 1 h. Additionally, nuclei were stained with DAPI, and filamentous actin was visualized using Alexa Fluor 488 or 647-conjugated phalloidin (Invitrogen). After three washing steps with PBS, the coverslips were mounted onto glass slides in Mowiol. Images were obtained using a Leica TCS SP5 confocal microscope with a 63× (NA 1.4) oil objective.
Image analysis was performed using Fiji (ImageJ) ([Schindelin et al., 2012]; [Schneider et al., 2012]). To quantify integrin clustering in FAs (based on vinculin staining) versus FCLs (clathrin staining), background was subtracted in both channels using a bilateral filter and the region of interest (ROI) was selected at the cell periphery. Colocalization of integrin clusters and FAs or FCLs was determined using the Image Calculator (command ‘multiply’) on both channels and calculating the area of overlapping clusters as a percentage of the total integrin cluster area per cell using the Analyze Particle function.

On to `COC[C@@H]([C@H](O)[C@H](O)C(=O)NCC[C@H](C)c1nc(/C=C/C[C@@H]2O[C@]3(C[C@@H](O)[C@@H]2C)O[C@H]([C@H](C[C@H](O)[C@H](C)[C@H](O)[C@H](C)/C=C(C)/C(C)=C/C=C/C(C)=C\C#N)OC)[C@H](OP(=O)(O)O)C3(C)C)co1)N(C)C` [calyculin A], for which the “localization of integrin β5 in FCLs, PA-JEB” value in test [1] (colocalization with clathrin) is given as “increased the localization in FCLs”. The “localization of integrin β5 in FAs, PA-JEB” value in test [1] (colocalization with vinculin) is recorded as “reduced the localization of integrin β5 in FAs”. Moreover, in test [2] (5 nM calyculin A versus DMSO, 30 min, 10% FCS DMEM, colocalization with vinculin, three independent experiments), the “localization of integrin β5 in FAs, PA-JEB/β4” value was “decreased the localization of integrin β5 in FAs”. In test [2] (calyculin A treatment, summary in discussion), the “redistribution of the integrin” value is recorded as “only led to a minor redistribution of the integrin”.

(Values after article PMC9234671, “Molecular determinants of αVβ5 localization in flat clathrin lattices – role of αVβ5 in cell adhesion and proliferation” (Journal of Cell Science, 2022).)
